# What was measured:
# [1] = biological target: T1, KRas^G12D (Homo sapiens, UniProt P01116, G12D); experiment: KRas binding assay (TR-FRET tracer displacement), KRas G12D
# T1 construct: Biotinylated KRas (corresponding to amino acids 1-169, produced at Accelegan Inc.); biotin (biotinylated); purchased Accelegan Inc
# [2] = biological target: T2, KRas^G12R (Homo sapiens, UniProt P01116, G12R); experiment: KRas binding assay (TR-FRET tracer displacement), KRas G12R
# T2 construct: Biotinylated KRas (corresponding to amino acids 1-169, produced at Accelegan Inc.); biotin (biotinylated); purchased Accelegan Inc
# [3] = biological target: T3, KRas^G12V (Homo sapiens, UniProt P01116, G12V); experiment: KRas binding assay (TR-FRET tracer displacement), KRas G12V
# T3 construct: Biotinylated KRas (corresponding to amino acids 1-169, produced at Accelegan Inc.); biotin (biotinylated); purchased Accelegan Inc
# [4] = system: KRas-mediated phosphorylation of ERK in AsPC-1 cells; experiment: Inhibition of KRas-mediated phosphorylation of ERK (Cisbio HTRF pERK), AsPC-1 cells; type: cell-based; settings: HTRF pERK
# Experimental: (§1) Inhibition of KRas Phosphorylation of ERK (HTRF) by Exemplary Compounds of Formula (I) Cisbio HTRF Advanced PERK Assay Catalog #64[…] […] Add 10 mL of media to stop trypsinizing. Pipette the cells into a conical bottom 50 mL centrifuge tube and centrifuge 5 min×1000 rpm. […] Re-suspend the cell pellet in media, take a cell count, and then adjust the cell density using fresh media. […] Seed 6,000 cells into cell culture plate with 50 μL media. […] Use Tecan to complete the compound addition. Compounds start from 10 uM top, 3-fold dilution, and 10 doses. The final DMSO concentration is 0.8%. Dispensed 0.2 uM Trametinib as Min control. […] Incubate cell plate for 3 hrs in the incubator. […] Dilute 1 volume of 4× lysis buffer with 3 volumes of deionized water. […] Keep lysis buffer on the ice. […] At the end of the compound treatment, flick-off the media. […] Add 35 μL of lysis buffer per well using a Multidrop Combi. Then place on a plate agitator shaking at 300 rpm at 4° C. for 40 mins. […] Make up the HTRF antibody buffer. For each assay plate, mix 50 μL of d2-conjugate antibody with 950 μL of detection buffer. Similarly, mix 50 μL of Cryptate antibody with 950 μL of detection buffer. Then mix the two diluted antibodies together. […] Dispense 3.4 μL the antibody buffer to wells of an empty assay plate. Seal the plate and centrifuge plate 30 sec×1000 rpm. […] At the end of the 4° C. lysis, centrifuge the lysate plates 3 mins×1500 rpm. […] Use the Bravo to transfer 13.6 μL of lysate from cell culture plate to assay plate. Then incubate assay plate for 2 hrs at room temperature. 8. At the end of incubation, read plate on the Envision after centrifuging plate 30 sec×1000 rpm.
# [5] = system: KRas-mediated phosphorylation of ERK in H727 cells; experiment: Inhibition of KRas-mediated phosphorylation of ERK (Cisbio HTRF pERK), H727 cells; type: cell-based; settings: HTRF pERK
# Experimental: as §1
# [6] = Homo sapiens, ASPC1, AsPC-1 cells
# [7] = Homo sapiens, NCI-H727, H727 cells
# T2 sequence (P01116 1-169 isoform P01116-2 G12R): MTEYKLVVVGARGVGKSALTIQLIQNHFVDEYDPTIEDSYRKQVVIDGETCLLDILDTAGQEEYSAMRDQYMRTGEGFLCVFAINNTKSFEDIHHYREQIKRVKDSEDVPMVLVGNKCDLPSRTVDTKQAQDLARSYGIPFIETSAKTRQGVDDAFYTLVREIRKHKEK
# T3 sequence (P01116 1-169 isoform P01116-2 G12V): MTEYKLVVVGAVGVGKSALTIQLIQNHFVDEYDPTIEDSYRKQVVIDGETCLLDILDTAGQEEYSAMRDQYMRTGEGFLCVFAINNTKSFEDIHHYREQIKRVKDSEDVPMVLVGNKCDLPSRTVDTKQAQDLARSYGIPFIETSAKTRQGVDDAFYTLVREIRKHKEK
# T1 sequence (P01116 1-169 isoform P01116-2 G12D): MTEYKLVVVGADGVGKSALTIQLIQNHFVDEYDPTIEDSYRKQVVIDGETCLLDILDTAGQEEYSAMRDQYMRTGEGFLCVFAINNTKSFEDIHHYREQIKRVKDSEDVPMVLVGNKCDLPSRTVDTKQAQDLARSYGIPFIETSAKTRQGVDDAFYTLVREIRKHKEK
IC50 [1],IC50 [2],IC50 [3],"IC50 [4, 6]","IC50 [5, 7]",IC50 ([4]; AsPC-1 cells),IC50 ([5]; H727 cells),Compound
300 nM,59 nM,62 nM,> 10000 nM,> 10000 nM,–,–,"CCc1c(F)ccc2cc(O)cc(-c3ncc4c(N5C[C@H]6C[C@@H](C5)[C@@H](O)[C@@H]6O)nc(OC[C@@]56CCCN5C[C@H](F)C6)nc4c3F)c12 (single isomer, unassigned) [Example 571]"
9 nM,4 nM,4 nM,–,–,1550 nM,763 nM,"CCc1c(F)ccc2cc(O)cc(-c3ncc4c(N5CCCC(C6CCNC6=O)C5)nc(OC[C@@]56CCCN5C[C@H](F)C6)nc4c3F)c12 (single isomer, unassigned) [Example 617]"
644 nM,195 nM,168 nM,–,–,> 10000 nM,> 10000 nM,"CCc1c(F)ccc2cc(O)cc(-c3ncc4c(N5CCCC(C6CCNC6=O)C5)nc(OC[C@@]56CCCN5C[C@H](F)C6)nc4c3F)c12 (single isomer, unassigned) [Example 618]"
33 nM,4 nM,21 nM,–,–,3620 nM,1810 nM,"CCc1c(F)ccc2cc(O)cc(-c3ncc4c(N5CCCC(C6CCNC6=O)C5)nc(OC[C@@]56CCCN5C[C@H](F)C6)nc4c3F)c12 (single isomer, unassigned) [Example 619]"
> 100000 nM,67700 nM,> 100000 nM,> 10000 nM,> 10000 nM,–,–,"O=C1CC2CN(c3nc(OCC45CCCN4CCC5)nc4c(F)c(-c5cccc6cccc(F)c56)ncc34)CCC2C(=O)N1 (centres unmarked) [Example 526, 6-(8-fluoro-7-(8-fluoronaphthalen-1-yl)-2-((hexahydro-1H-pyrrolizin-7a-yl)methoxy)pyrido[4,3-d]pyrimidin-4-yl)hexahydro-2,6-naphthyridine-1,3(2H,4H)-dione]"
116 nM,193 nM,150 nM,> 10000 nM,> 10000 nM,–,–,"CCc1c(F)ccc2cc(O)cc(-c3ncc4c(N5CCC[C@@](C)(O)C5)nc(N5CC(N)C5)nc4c3F)c12 [Example 527, (R)-1-(2-(3-aminoazetidin-1-yl)-7-(8-ethyl-7-fluoro-3-hydroxynaphthalen-1-yl)-8-fluoropyrido[4,3-d]pyrimidin-4-yl)-3-methylpiperidin-3-ol]"
8 nM,3 nM,3 nM,> 10000 nM,> 10000 nM,–,–,"CCc1c(F)ccc2cc(O)cc(-c3ncc4c(N5CCCC6(C5)NC(=O)NC6=O)nc(N5CC(N)C5)nc4c3F)c12 (centres unmarked) [Example 528, 7-(2-(3-aminoazetidin-1-yl)-7-(8-ethyl-7-fluoro-3-hydroxynaphthalen-1-yl)-8-fluoropyrido[4,3-d]pyrimidin-4-yl)-1,3,7-triazaspiro[4.5]decane-2,4-dione]"
14 nM,36 nM,21 nM,> 10000 nM,> 10000 nM,–,–,"CCc1c(F)ccc2cc(O)cc(-c3ncc4c(N5CCCn6nc(C(=O)N(C)C)cc6C5)nc(N5CC(N)C5)nc4c3F)c12 [Example 529, 5-(2-(3-aminoazetidin-1-yl)-7-(8-ethyl-7-fluoro-3-hydroxynaphthalen-1-yl)-8-fluoropyrido[4,3-d]pyrimidin-4-yl)-N,N-dimethyl-5,6,7,8-tetrahydro-4H-pyrazolo[1,5-a][1,4]diazepine-2-carboxamide]"
5 nM,< 2 nM,< 2 nM,> 10000 nM,> 10000 nM,–,–,"CCc1c(F)ccc2cc(O)cc(-c3ncc4c(N5CCCC6(C5)NC(=O)NC6=O)nc(N5CC(C)(N)C5)nc4c3F)c12 (centres unmarked) [Example 531, 7-(2-(3-amino-3-methylazetidin-1-yl)-7-(8-ethyl-7-fluoro-3-hydroxynaphthalen-1-yl)-8-fluoropyrido[4,3-d]pyrimidin-4-yl)-1,3,7-triazaspiro[4.5]decane-2,4-dione]"
9 nM,24 nM,15 nM,> 10000 nM,> 10000 nM,–,–,"CCc1c(F)ccc2cc(O)cc(-c3ncc4c(N5CCCn6nc(C(=O)N(C)C)cc6C5)nc(N5CC(C)(N)C5)nc4c3F)c12 [Example 532, 5-(2-(3-amino-3-methylazetidin-1-yl)-7-(8-ethyl-7-fluoro-3-hydroxynaphthalen-1-yl)-8-fluoropyrido[4,3-d]pyrimidin-4-yl)-N,N-dimethyl-5,6,7,8-tetrahydro-4H-pyrazolo[1,5-a][1,4]diazepine-2-carboxamide]"
60 nM,6 nM,9 nM,> 10000 nM,2330 nM,–,–,"CCc1c(F)ccc2cc(O)cc(-c3ncc4c(NC5CCONC5)nc(OC[C@@]56CCCN5C[C@H](F)C6)nc4c3F)c12 (stereo partly drawn) [Example 542, 4-(4-((1,2-oxazinan-4-yl)amino)-8-fluoro-2-(((2R,7aS)-2-fluorohexahydro-1H-pyrrolizin-7a-yl)methoxy)pyrido[4,3-d]pyrimidin-7-yl)-5-ethyl-6-fluoronaphthalen-2-ol]"
72 nM,37 nM,35 nM,1830 nM,1010 nM,–,–,"CCc1c(F)ccc2cc(O)cc(-c3ncc4c(N5C[C@H]6CC[C@@]6(O)C5)nc(OC[C@@]56CCCN5C[C@H](F)C6)nc4c3F)c12 [Example 546, (1S,5R)-3-(7-(8-ethyl-7-fluoro-3-hydroxynaphthalen-1-yl)-8-fluoro-2-(((2R,7aS)-2-fluorohexahydro-1H-pyrrolizin-7a-yl)methoxy)pyrido[4,3-d]pyrimidin-4-yl)-3-azabicyclo[3.2.0]heptan-1-ol]"
810 nM,71 nM,244 nM,9330 nM,5300 nM,–,–,"CCc1c(F)ccc2cc(O)cc(-c3ncc4c(N5CCC6CCCC5C6)nc(OC[C@@]56CCCN5C[C@H](F)C6)nc4c3F)c12 (stereo partly drawn) [Example 552, 4-(4-(2-azabicyclo[3.3.1]nonan-2-yl)-8-fluoro-2-(((2R,7aS)-2-fluorotetrahydro-1H-pyrrolizin-7a(5H)-yl)methoxy)pyrido[4,3-d]pyrimidin-7-yl)-5-ethyl-6-fluoronaphthalen-2-ol]"
102 nM,7350 nM,3530 nM,–,–,–,–,"CCc1c(F)ccc2cc(O)cc(-c3ncc4c(N5CCN(C)C[C@]6(C)CCC[C@@H]56)nc(OC[C@@]56CCCN5C[C@H](F)C6)nc4c3F)c12 [Example 866, 4-(4-((5aS,8aR)-4,5a-dimethyloctahydrocyclopenta[e][1,4]diazepin-1(2H)-yl)-8-fluoro-2-(((2R,7aS)-2-fluorotetrahydro-1H-pyrrolizin-7a(5H)-yl)methoxy)pyrido[4,3-d]pyrimidin-7-yl)-5-ethyl-6-fluoronaphthalen-2-ol]"
121 nM,177 nM,119 nM,–,–,–,–,"CCCCCCCCCCN(C)C(=O)OC[C@@H]1CC[C@@]2(COc3nc(N4CCC[C@@](C)(O)C4)c4cnc(-c5cc(O)cc6ccc(F)c(CC)c56)c(F)c4n3)CCCN12 [Example 894, ((3S,7aR)-7a-(((7-(8-ethyl-7-fluoro-3-hydroxynaphthalen-1-yl)-8-fluoro-4-((R)-3-hydroxy-3-methylpiperidin-1-yl)pyrido[4,3-d]pyrimidin-2-yl)oxy)methyl)hexahydro-1H-pyrrolizin-3-yl)methyl decyl(methyl)carbamate]"
834 nM,876 nM,902 nM,–,–,–,–,"O[C@@H]1CCCN(c2nc(OCC34CCCN3CCC4)nc3c(F)c(-c4cccc5cccc(Cl)c45)ncc23)C1 [Example 902, (R)-1-(7-(8-chloronaphthalen-1-yl)-8-fluoro-2-((tetrahydro-1H-pyrrolizin-7a(5H)-yl)methoxy)pyrido[4,3-d]pyrimidin-4-yl) piperidin-3-ol]"
9830 nM,11200 nM,15100 nM,–,–,–,–,"O[C@H]1CCCN(c2nc(OCC34CCCN3CCC4)nc3c(F)c(-c4cccc5cccc(Cl)c45)ncc23)C1 [Example 903, (S)-1-(7-(8-chloronaphthalen-1-yl)-8-fluoro-2-((tetrahydro-1H-pyrrolizin-7a(5H)-yl)methoxy)pyrido[4,3-d]pyrimidin-4-yl) piperidin-3-ol]"
66 nM,646 nM,247 nM,–,–,–,–,"O=S1(=O)NCC2(CCCN(c3nc(OCC45CCCN4CCC5)nc4c(F)c(-c5cccc6cccc(CO)c56)ncc34)C2)N1 (centres unmarked) [Example 906, 7-(8-fluoro-7-(8-(hydroxymethyl)naphthalen-1-yl)-2-((tetrahydro-1H-pyrrolizin-7a(5H)-yl)methoxy)pyrido[4,3-d]pyrimidin-4-yl)-2-thia-1,3,7-triazaspiro[4.5]decane 2,2-dioxide]"
